# In article PMC11435058, “Synthesis of New Thiazole-Privileged Chalcones as Tubulin Polymerization Inhibitors with Potential Anticancer Activities” (Pharmaceuticals, 2024):
# Read-outs that look alike come from different tables or passages of the source.
# What was measured:
# [1] = tested on: MDA-MB-468; assay: NCI-60 anticancer screen (SRB; single dose and five doses); type: cell-based, human
# Procedure, shortened: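 NCI panel of about 60 human tumor cell lines treated with compound at a single concentration (10μM) for 48 h. Growth measured by SRB protein staining and expressed as percent growth of treated versus untreated control cells.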
# [2] = tested on: 60 human tumor cell lines panel; assay: NCI-60 anticancer screen, whole panel (means and ranges over the cell lines); type: cell-based; conditions: for activity at 10 µM: Homo sapiens, 48 h, dose of 10 μM
# [3] = tested on: SNB-19; assay: cells; conditions: Homo sapiens
# [4] = tested on: MOLT-4; assay: NCI-60 anticancer screen (SRB; single dose and five doses); conditions: Homo sapiens
# [5] = tested on: RPMI-8226; assay: as above; conditions: Homo sapiens
# [6] = tested on: A549/ATCC; assay: as above; conditions: Homo sapiens
# [7] = tested on: HOP-62; assay: as above; conditions: Homo sapiens
# [8] = tested on: HOP-92; assay: as above; conditions: Homo sapiens
# [9] = tested on: NCI-H226; assay: as above; conditions: Homo sapiens
# [10] = tested on: NCI-H322M; assay: as above; conditions: Homo sapiens
# [11] = tested on: NCI-H460; assay: as above; conditions: Homo sapiens
# [12] = tested on: NCI-H522; assay: as above; conditions: Homo sapiens
# [13] = tested on: COLO 205; assay: as above; conditions: Homo sapiens
# [14] = tested on: HCC-2998; assay: as above
# [15] = tested on: HCT-116; assay: as above; conditions: Homo sapiens
# [16] = tested on: MALME-3M; assay: as above; conditions: Homo sapiens
# [17] = tested on: SK-MEL-28; assay: as above; conditions: Homo sapiens
# [18] = tested on: OVCAR-8; assay: as above; conditions: Homo sapiens
# [19] = tested on: NCI/ADR-RES; assay: as above; conditions: Homo sapiens
# [20] = tested on: SK-OV-3; assay: as above; conditions: Homo sapiens
# [21] = tested on: A498; assay: as above; conditions: Homo sapiens
# [22] = tested on: ACHN; assay: as above; conditions: Homo sapiens
# [23] = tested on: RXF 393; assay: as above; conditions: Homo sapiens
# [24] = tested on: PC-3; assay: as above; conditions: Homo sapiens
# [25] = tested on: BT-549; assay: as above; conditions: Homo sapiens
# [26] = five doses, mean graph midpoint over all cell lines
# [27] = 48 h, read-out: Growth Percentage
structure (smiles),measurement,setting,value
"Cc1[nH]c(=S)sc1C(=O)/C=C/c1ccc(Br)cc1 [2g, (E)-3-(4-Bromophenyl)-1-(4-Methyl-2-Thioxo-2,3-Dihydrothiazol-5-yl)Prop-2-En-1-One]",activity at 10 µM,"[1]; Homo sapiens, 48 h, MDA-MB-468, dose of 10 μM, read-out: Growth Percentage",-4.75%
same,GI50,"[1]; Homo sapiens, MDA-MB-468, Breast Cancer, five dose",1.79 µM
same,CC50,"[1]; Homo sapiens, MDA-MB-468, Breast Cancer, five dose, read-out: LC50 (the source's name)",27.2 µM
same,TGI,"[1]; MDA-MB-468, Breast Cancer, five dose",6.77 µM
same,activity at 10 µM,"[2]; mean over the tested cell lines, read-out: Mean growth percentage",34.2%
same,activity at 10 µM,"[2]; range over the cell lines, read-out: growth percentages against most of the tested cells (lowest to highest)",-34.1 to 109%
same,Log10GI50 _MID,[2]; [26],-5.31 Molar
same,Log10LC50 _MID,[2]; [26],-4.3 Molar
same,Log10TGI _MID,[2]; [26],-4.75 Molar
same,GI50,[3]; SNB-19,3.47 µM
same,activity at 10 µM,"[3]; SNB-19, 48 h, read-out: Growth Percentage",32.7%
same,CC50,"[3]; SNB-19, read-out: LC50",37.7 µM
same,IC (TGI),"[3]; SNB-19, read-out: TGI",13.4 µM
same,GI50,[4]; MOLT-4,3.57 µM
same,activity at 10 µM,"[4]; MOLT-4, 48 h, read-out: Growth Percentage",30.2%
same,CC50,"[4]; MOLT-4, read-out: LC50",> 100 µM
same,IC (TGI),"[4]; MOLT-4, read-out: TGI",36.6 µM
same,GI50,[5]; RPMI-8226,2.29 µM
same,activity at 10 µM,"[5]; RPMI-8226, 48 h, read-out: Growth Percentage",1.4%
same,CC50,"[5]; RPMI-8226, read-out: LC50",> 100 µM
same,IC (TGI),"[5]; RPMI-8226, read-out: TGI",> 100 µM
same,GI50,[6]; A549,11.7 µM
same,activity at 10 µM,"[6]; A549, 48 h, read-out: Growth Percentage",64.1%
same,CC50,"[6]; A549, read-out: LC50",55.3 µM
same,IC (TGI),"[6]; A549, read-out: TGI",25.4 µM
same,GI50,[7]; HOP-62,3.94 µM
same,activity at 10 µM,"[7]; HOP-62, 48 h, read-out: Growth Percentage",11.9%
same,CC50,"[7]; HOP-62, read-out: LC50",61.2 µM
same,IC (TGI),"[7]; HOP-62, read-out: TGI",14 µM
same,GI50,[8]; HOP-92,6.44 µM
same,activity at 10 µM,"[8]; HOP-92, 48 h, read-out: Growth Percentage",67.1%
same,CC50,"[8]; HOP-92, read-out: LC50",58.8 µM
same,IC (TGI),"[8]; HOP-92, read-out: TGI",22.5 µM
same,GI50,[9]; NCI-H226,4.13 µM
same,activity at 10 µM,"[9]; NCI-H226, 48 h, read-out: Growth Percentage",54.5%
same,CC50,"[9]; NCI-H226, read-out: LC50",> 100 µM
same,IC (TGI),"[9]; NCI-H226, read-out: TGI",25.4 µM
same,GI50,[10],3.76 µM
same,activity at 10 µM,[10]; [27],44.1%
same,CC50,[10]; read-out: LC50,41.3 µM
same,IC (TGI),[10]; read-out: TGI,15.2 µM
same,GI50,[11]; NCI-H460,14.3 µM
same,activity at 10 µM,"[11]; NCI-H460, 48 h, read-out: Growth Percentage",39.1%
same,CC50,"[11]; NCI-H460, read-out: LC50",80.9 µM
same,IC (TGI),"[11]; NCI-H460, read-out: TGI",34.1 µM
same,GI50,[12]; NCI-H522,3.37 µM
same,activity at 10 µM,"[12]; NCI-H522, 48 h, read-out: Growth Percentage",21.1%
same,CC50,"[12]; NCI-H522, read-out: LC50",41.2 µM
same,IC (TGI),"[12]; NCI-H522, read-out: TGI",14.3 µM
same,GI50,[13]; COLO 205,13.9 µM
same,activity at 10 µM,"[13]; COLO 205, 48 h, read-out: Growth Percentage",90%
same,CC50,"[13]; COLO 205, read-out: LC50",80 µM
same,IC (TGI),"[13]; COLO 205, read-out: TGI",33.3 µM
same,GI50,"[14]; Homo sapiens, HCC 2998",2.72 µM
same,activity at 10 µM,"[14]; Homo sapiens, HCC 2998, 48 h, read-out: Growth Percentage",3.23%
same,CC50,"[14]; Homo sapiens, HCC 2998, read-out: LC50",31.6 µM
same,TGI,"[14]; five-dose, Colon Cancer HCC-2998",9.62 µM
same,GI50,[15]; HCT-116,3.82 µM
same,activity at 10 µM,"[15]; HCT-116, 48 h, read-out: Growth Percentage",16.6%
same,CC50,"[15]; HCT-116, read-out: LC50",40.9 µM
same,IC (TGI),"[15]; HCT-116, read-out: TGI",13.1 µM
same,GI50,[16],12.5 µM
same,activity at 10 µM,[16]; [27],72.9%
same,CC50,[16]; read-out: LC50,67.2 µM
same,IC (TGI),[16]; read-out: TGI,29 µM
same,GI50,[17]; SK-MEL-28,11.9 µM
same,activity at 10 µM,"[17]; SK-MEL-28, 48 h, read-out: Growth Percentage",64.2%
same,CC50,"[17]; SK-MEL-28, read-out: LC50",50.2 µM
same,IC (TGI),"[17]; SK-MEL-28, read-out: TGI",24.5 µM
same,GI50,[18]; OVCAR-8,2.86 µM
same,activity at 10 µM,"[18]; OVCAR-8, 48 h, read-out: Growth Percentage",-34.1%
same,CC50,"[18]; OVCAR-8, read-out: LC50",37.1 µM
same,IC (TGI),"[18]; OVCAR-8, read-out: TGI",8.77 µM
same,GI50,[19],6.04 µM
same,activity at 10 µM,[19]; [27],-13.9%
same,CC50,[19]; read-out: LC50,73.4 µM
same,IC (TGI),[19]; read-out: TGI,23.4 µM
same,GI50,[20]; SK-OV-3,13.8 µM
same,activity at 10 µM,"[20]; SK-OV-3, 48 h, read-out: Growth Percentage",96.7%
same,CC50,"[20]; SK-OV-3, read-out: LC50",74.9 µM
same,IC (TGI),"[20]; SK-OV-3, read-out: TGI",32.2 µM
same,GI50,[21]; A498,13.5 µM
same,activity at 10 µM,"[21]; A498, 48 h, read-out: Growth Percentage, A498, dose of 10 μM",109%
same,CC50,"[21]; A498, read-out: LC50",51.8 µM
same,IC (TGI),"[21]; A498, read-out: TGI",26.5 µM
same,GI50,[22],7.67 µM
same,activity at 10 µM,[22]; [27],55%
same,CC50,[22]; read-out: LC50,45.4 µM
same,IC (TGI),[22]; read-out: TGI,20.3 µM
same,GI50,[23]; RXF 393,2.58 µM
same,activity at 10 µM,"[23]; RXF 393, 48 h, read-out: Growth Percentage",16%
same,CC50,"[23]; RXF 393, read-out: LC50",33 µM
same,IC (TGI),"[23]; RXF 393, read-out: TGI",9.43 µM
same,GI50,[24]; PC-3,4.68 µM
same,activity at 10 µM,"[24]; PC-3, 48 h, read-out: Growth Percentage",48.8%
same,CC50,"[24]; PC-3, read-out: LC50",> 100 µM
same,IC (TGI),"[24]; PC-3, read-out: TGI",26 µM
same,GI50,[25]; BT-549,2.6 µM
same,activity at 10 µM,"[25]; BT-549, 48 h, read-out: Growth Percentage",19.5%
same,IC (TGI),"[25]; BT-549, read-out: TGI",7.28 µM
